Assays:
[1] = Alteration of macronutrient preference in rats, 75% or 25% carbohydrate test diets (Example 2); type: in vivo, rats (Sprague-Dawley); settings: rat; for cumulative amount of 25% Carbohydrate diet consumed, 1 hr / cumulative amount of 25% Carbohydrate diet consumed, 2 hr / cumulative amount of 75% Carbohydrate diet consumed, 1 hr / cumulative amount of 75% Carbohydrate diet consumed, 2 hr: mean±SEM; for cumulative amount of 25% Carbohydrate diet consumed, 1 hr: saline 6.4 ± 0.5; for cumulative amount of 25% Carbohydrate diet consumed, 2 hr: saline 7.5 ± 1.7; for cumulative amount of 75% Carbohydrate diet consumed, 1 hr: saline 6.6 ± 0.5; for cumulative amount of 75% Carbohydrate diet consumed, 1 hr / cumulative amount of 75% Carbohydrate diet consumed, 2 hr: significant p < 0.01; for cumulative amount of 75% Carbohydrate diet consumed, 2 hr: saline 8.4 ± 1.6
Procedure: Sixty adult male rats (Sprague-Dawley, 225-300 g) were acclimated to laboratory conditions for a period of 10 days, during which they were allowed unrestricted access to food (Ralston-Purina #5001M) and water. All subjects were housed in individual cages, and the animal facility was maintained on a 12:12 hour light:dark cycle at 24°-27° C.
Animals were assigned to 6 groups (10 per group), then allowed to consume, ad libitum, one of two iso-nitrogenous test diets containing either 75% or 25% carbohydrate. After 3 days, food jars were removed. After an additional 24 hours, rats were administered either saline or 1,2,3,4-tetrahydrobenzo[b]thieno[2,3-c]pyridine (1.5 or 3.0 mg/Kg body weight), then given immediate access to the test diets. Data listed in Table 3 indicate the cumulative amount in grams (mean±SEM) of each diet consumed by the experimental and control groups during the subsequent 2-hour period.

[2] = Acute toxicity studies in mice; settings: mouse, in vivo, ip, intraperitoneally
Procedure: In acute toxicity studies in mice, 1,2,3,4-tetrahydrobenzo[b]thieno[2,3-c]pyridine yields LD50 values in excess of 100 mg/kg when administered intraperitoneally and 100 mg/kg when administered by the oral route.

[3] = U.S. Pat. Nos. 3,636,218; 3,518,278; Miller et al; cited from earlier work
[4] = Food intake in food-deprived rats after ip injection (Example 1); type: in vivo; settings: for Post-Drug Food Intake, 0-1 hr / Post-Drug Food Intake, 1-2 hr / Post-Drug Food Intake, 2-6 hr / Post-Drug Food Intake, 6-8 hr / Post-Drug Food Intake, 8-24 hr / Cumulative Food Intake, 1 hr / Cumulative Food Intake, 2 hr / Cumulative Food Intake, 6 hr / Cumulative Food Intake, 8 hr / Cumulative Food Intake, 24 hr: mean ± SD; for Post-Drug Food Intake, 0-1 hr / Cumulative Food Intake, 1 hr: control 5.3 ± 1.3; for Post-Drug Food Intake, 1-2 hr: control 0.6 ± 0.7; for Post-Drug Food Intake, 2-6 hr: control 2.5 ± 1.6; for Post-Drug Food Intake, 6-8 hr: control 2.0 ± 1.0; for Post-Drug Food Intake, 8-24 hr: control 20.8 ± 1.7; for Cumulative Food Intake, 2 hr: control 5.9 ± 1.2; for Cumulative Food Intake, 6 hr: control 8.4 ± 0.9; for Cumulative Food Intake, 8 hr: control 10.4 ± 1.6; for Cumulative Food Intake, 24 hr: control 31.2 ± 2.1
Procedure: Forty-eight 70-to-80-day-old male rats (Bantin & Kingman, Fremont, Calif.) were housed singly in suspended cages, and were acclimated to the laboratory setting for a period of 12 days prior to testing. During this time, they were allowed ad libitum access to food (Ralston-Purina #5001M) and water. The room was kept at 24°-27° C. and maintained on a 12:12-hr light:dark schedule (0700-1900 h).
Animals matched by body weight and mean daily food intake were assigned to 4 groups (n=12/group). Food jars were removed at 0900 h. Twenty-four hours later, rats were injected with either sterile 0.9% saline or saline containing 1,2,3,4-tetrahydrobenzo[b]thieno[2,3-c]pyridine HCl (5, 10, or 25 mg/kg, ip). Pre-weighed food jars containing meal (Ralston-Purina #5001M) were presented immediately post-injection. These were weighed at intervals over the next 24 hours, and food consumption was calculated for each interval. Animals were provided with water in quantities sufficient for ad libitum consumption throughout the experiment.
To assess the duration of the drug-induced anorexia and rebound feeding behavior, food intake was measured at several time intervals after drug administration.

[5] = in vivo; cited from earlier work
[6] = rat, 5 mg/Kg ip, significant p < 0.02
[7] = rat, 10 mg/Kg ip, significant p < 0.02
[8] = rat, 25 mg/Kg ip, significant p < 0.05
[9] = rat, 25 mg/Kg ip, significant p < 0.02

In the case of c1ccc2c3c(sc2c1)CNCC3 [1,2,3,4-tetrahydrobenzo[b]thieno[2,3-c]pyridine], the “cumulative amount of 25% Carbohydrate diet consumed, 1 hr” value ([1]; 1.5 mg/Kg) is reported as 5.6 ± 0.3 grams, the “cumulative amount of 25% Carbohydrate diet consumed, 2 hr” value ([1]; 1.5 mg/Kg) is reported as 7.6 ± 1.0 grams and the “cumulative amount of 75% Carbohydrate diet consumed, 1 hr” value ([1]; 1.5 mg/Kg) is reported as 4.4 ± 0.2 grams. The “cumulative amount of 75% Carbohydrate diet consumed, 2 hr” value ([1]; 1.5 mg/Kg) was 5.8 ± 0.8 grams, the “cumulative amount of 25% Carbohydrate diet consumed, 1 hr” value ([1]; 3.0 mg/Kg) was 5.4 ± 0.3 grams and the “cumulative amount of 25% Carbohydrate diet consumed, 2 hr” value ([1]; 3.0 mg/Kg) was 7.0 ± 1.1 grams. For the same molecule, the “cumulative amount of 75% Carbohydrate diet consumed, 1 hr” value ([1]; 3.0 mg/Kg) was 4.5 ± 0.2 grams, the “cumulative amount of 75% Carbohydrate diet consumed, 2 hr” value ([1]; 3.0 mg/Kg) was 6.0 ± 1.3 grams and the “consumption of low carbohydrate diet vs controls” value ([1]; 1.5 or 3.0 mg/Kg, 25% carbohydrate) was “consumed equivalent quantities of the low carbohydrate diet”. The “consumption of high carbohydrate diet vs controls” value ([1]; 1.5 or 3.0 mg/Kg, 75% carbohydrate) was “consumed significantly less of the high carbohydrate diet than did controls”, the LD50 [2] was > 100 mg/kg and the “central nervous system depression” value [3] was “CNS depressants and tranquilizing agents”. For the same molecule, the “Post-Drug Food Intake, 0-1 hr” value ([4]; rat, 5 mg/Kg ip, significant p < 0.05) was 1.3 ± 0.6 gm, the “Post-Drug Food Intake, 1-2 hr” value ([4]; rat, 5 mg/Kg ip) was 1.2 ± 0.6 gm and the “Post-Drug Food Intake, 2-6 hr” value ([4]; rat, 5 mg/Kg ip) was 4.9 ± 1.6 gm. For the same molecule, the “Post-Drug Food Intake, 6-8 hr” value ([4]; rat, 5 mg/Kg ip) was 1.8 ± 1.3 gm, the “Post-Drug Food Intake, 8-24 hr” value ([4]; rat, 5 mg/Kg ip) was 18.2 ± 1.9 gm and the “Cumulative Food Intake, 1 hr” value [4, 6] was 1.3 ± 0.6 gm. For the same molecule, the “Cumulative Food Intake, 2 hr” value [4, 6] was 2.5 ± 0.7 gm, the “Cumulative Food Intake, 6 hr” value ([4]; rat, 5 mg/Kg ip) was 7.4 ± 1.6 gm and the “Cumulative Food Intake, 8 hr” value ([4]; rat, 5 mg/Kg ip) was 9.2 ± 1.6 gm. For the same molecule, the “Cumulative Food Intake, 24 hr” value ([4]; rat, 5 mg/Kg ip) was 27.4 ± 2.8 gm, the “food consumption in rats” value ([4]; rat, 5 mg/kg intraperitoneally) was “significantly reduce food consumption in rats” and the “Post-Drug Food Intake, 0-1 hr” value ([4]; rat, 10 mg/Kg ip, significant p < 0.05) was 0.9 ± 0.9 gm. The “Post-Drug Food Intake, 1-2 hr” value ([4]; rat, 10 mg/Kg ip) was 1.1 ± 0.8 gm, the “Post-Drug Food Intake, 2-6 hr” value ([4]; rat, 10 mg/Kg ip) was 4.3 ± 1.8 gm and the “Post-Drug Food Intake, 6-8 hr” value ([4]; rat, 10 mg/Kg ip) was 1.4 ± 0.6 gm. The “Post-Drug Food Intake, 8-24 hr” value ([4]; rat, 10 mg/Kg ip) was 19.2 ± 2.8 gm, the “Cumulative Food Intake, 1 hr” value [4, 7] was 0.9 ± 0.9 gm and the “Cumulative Food Intake, 2 hr” value [4, 7] was 2.0 ± 1.1 gm. The “Cumulative Food Intake, 6 hr” value ([4]; rat, 10 mg/Kg ip) was 6.3 ± 2.3 gm, the “Cumulative Food Intake, 8 hr” value ([4]; rat, 10 mg/Kg ip) was 7.7 ± 2.5 gm and the “Cumulative Food Intake, 24 hr” value [4, 7] was 26.8 ± 2.8 gm. For the same molecule, the “Post-Drug Food Intake, 0-1 hr” value [4, 8] was 0.1 ± 0.2 gm, the “Post-Drug Food Intake, 1-2 hr” value ([4]; rat, 25 mg/Kg ip) was 0.1 ± 0.2 gm and the “Post-Drug Food Intake, 2-6 hr” value ([4]; rat, 25 mg/Kg ip) was 2.1 ± 2.3 gm. For the same molecule, the “Post-Drug Food Intake, 6-8 hr” value ([4]; rat, 25 mg/Kg ip) was 0.9 ± 0.7 gm, the “Post-Drug Food Intake, 8-24 hr” value [4, 8] was 17.1 ± 2.1 gm and the “Cumulative Food Intake, 1 hr” value [4, 9] was 0.1 ± 0.2 gm. The “Cumulative Food Intake, 2 hr” value [4, 9] was 0.2 ± 0.3 gm, the “Cumulative Food Intake, 6 hr” value [4, 9] was 2.2 ± 2.4 gm and the “Cumulative Food Intake, 8 hr” value [4, 9] was 3.0 ± 2.6 gm. For the same molecule, the “Cumulative Food Intake, 24 hr” value [4, 9] was 20.1 ± 2.6 gm, the “cumulative food intake at 24 hours vs controls” value ([4]; rat, 25 mg/kg ip, 24 hours) was “substantially lower cumulative food intake at 24 hours post-injection than controls” and the “food consumption, dose relation” value ([4]; rat, 5, 10, 25 mg/kg ip) was “dose-related decrement in food consumption”. The “rebound feeding in the 1-6 hr interval” value ([4]; rat, 5 and 10 mg/kg ip, not statistically significant) was “varying degrees of rebound feeding”, the “food intake at 2 hours post-injection vs control” value ([4]; rat, all experimental groups (5, 10, 25 mg/kg ip), 2 hours) was “significantly lower than control values” and the “food intake in the first hour after drug administration” value ([4]; rat, ip, first hour) was “highly significant fall in food intake”.

In the case of O=C(NCCN1CCOCC1)c1sc2ccccc2c1Br [3-bromo-2-(N-morpholinoethyl)benzo[b]thiophene carboximide], the anticonvulsant properties [5] is given as “anticonvulsant properties” and the antidepressant activity [5] is given as “antidepressant activity”.
